From patent publication US11306101B2 (Celgene Corporation, priority 2019, dated 2022)

Molecular target: T1, CK1α (Homo sapiens, UniProt P48729+Q96SW2)
T1 construct: expressed in transfected cells
Test: CK1α ePL degradation assay in MDS-L cells
Assay type: cell-based
Conditions: MDS-L cells expressing ePL-tagged CK1α; for DC50: concentration giving 50% CK1α degradation vs DMSO control; for Y: lowest measured CK1α level normalized to DMSO control
How it was run: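 Degradation efficiency is reported as Y value, the minimum CK1α level (percent of DMSO control) across doses. Readout used InCELL Hunter luminescent detection after MDS-L cell exposure at 37° C for stated times, doses 10 μM down to 0.0005 μM in 3-fold steps.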

T1 sequence (P48729 whole entry): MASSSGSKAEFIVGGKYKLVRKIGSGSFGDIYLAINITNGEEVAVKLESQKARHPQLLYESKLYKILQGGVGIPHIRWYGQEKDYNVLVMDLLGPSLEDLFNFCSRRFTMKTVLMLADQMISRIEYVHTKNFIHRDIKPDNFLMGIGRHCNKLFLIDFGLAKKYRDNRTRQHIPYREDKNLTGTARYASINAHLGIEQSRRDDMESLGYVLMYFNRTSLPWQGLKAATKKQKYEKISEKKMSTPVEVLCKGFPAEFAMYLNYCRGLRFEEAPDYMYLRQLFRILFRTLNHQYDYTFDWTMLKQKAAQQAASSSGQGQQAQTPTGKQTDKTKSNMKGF
T1 sequence (Q96SW2 whole entry): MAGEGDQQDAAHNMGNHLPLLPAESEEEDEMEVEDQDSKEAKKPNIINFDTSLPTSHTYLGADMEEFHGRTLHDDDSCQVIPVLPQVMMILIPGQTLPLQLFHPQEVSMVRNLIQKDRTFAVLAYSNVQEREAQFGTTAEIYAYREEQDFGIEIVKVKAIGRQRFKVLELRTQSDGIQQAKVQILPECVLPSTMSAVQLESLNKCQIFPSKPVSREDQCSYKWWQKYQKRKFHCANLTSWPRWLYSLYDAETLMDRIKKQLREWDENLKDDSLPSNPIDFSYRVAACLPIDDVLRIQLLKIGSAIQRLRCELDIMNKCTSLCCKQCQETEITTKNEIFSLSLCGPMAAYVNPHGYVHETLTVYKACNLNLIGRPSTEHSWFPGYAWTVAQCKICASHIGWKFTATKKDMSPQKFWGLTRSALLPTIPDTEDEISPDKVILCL
T1 sequence (Q16531 whole entry partner): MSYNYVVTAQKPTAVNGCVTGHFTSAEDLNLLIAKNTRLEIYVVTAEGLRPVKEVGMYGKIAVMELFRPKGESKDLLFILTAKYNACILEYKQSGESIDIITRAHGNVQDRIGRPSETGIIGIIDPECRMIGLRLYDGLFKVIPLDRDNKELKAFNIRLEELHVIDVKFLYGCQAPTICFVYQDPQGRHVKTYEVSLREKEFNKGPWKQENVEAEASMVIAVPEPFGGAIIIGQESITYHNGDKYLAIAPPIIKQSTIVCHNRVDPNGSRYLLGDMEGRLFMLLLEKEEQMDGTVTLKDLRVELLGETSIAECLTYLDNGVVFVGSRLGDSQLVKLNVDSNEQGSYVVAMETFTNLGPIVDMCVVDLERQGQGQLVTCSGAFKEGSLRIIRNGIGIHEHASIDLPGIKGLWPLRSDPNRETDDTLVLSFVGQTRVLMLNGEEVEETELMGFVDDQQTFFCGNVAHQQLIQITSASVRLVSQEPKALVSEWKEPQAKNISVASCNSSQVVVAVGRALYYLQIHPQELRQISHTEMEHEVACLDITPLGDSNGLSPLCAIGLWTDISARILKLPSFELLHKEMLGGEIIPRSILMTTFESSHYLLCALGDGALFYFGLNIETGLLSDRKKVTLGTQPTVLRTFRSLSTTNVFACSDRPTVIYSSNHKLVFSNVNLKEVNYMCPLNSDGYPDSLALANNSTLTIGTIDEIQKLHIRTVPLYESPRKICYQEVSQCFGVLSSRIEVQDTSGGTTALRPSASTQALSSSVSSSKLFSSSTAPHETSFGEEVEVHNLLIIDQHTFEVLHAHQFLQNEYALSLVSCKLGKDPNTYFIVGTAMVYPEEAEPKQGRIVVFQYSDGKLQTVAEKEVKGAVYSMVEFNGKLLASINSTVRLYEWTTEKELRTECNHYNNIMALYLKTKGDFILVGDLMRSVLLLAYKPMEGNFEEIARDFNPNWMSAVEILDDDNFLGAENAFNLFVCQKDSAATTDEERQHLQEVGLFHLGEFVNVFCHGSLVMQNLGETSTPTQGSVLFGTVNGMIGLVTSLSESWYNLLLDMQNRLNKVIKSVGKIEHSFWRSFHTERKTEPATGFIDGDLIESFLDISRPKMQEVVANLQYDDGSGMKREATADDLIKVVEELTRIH

SMILES	DC50	Y
CN(C)Cc1ccc([C@@H](NC(=O)c2ccc3c(c2)CN(C2CCC(=O)NC2=O)C3=O)C(F)(F)F)cc1 (stereo partly drawn) [Example 141, N-((R)-1-(4-((dimethylamino)methyl)phenyl)-2,2,2-trifluoroethyl)-2-(2,6-dioxopiperidin-3-yl)-1-oxoisoindoline-5-carboxamide]	< 100 nM	* (a Y value (shown as *) of 0<Y≤20%)
CC(C)NC(=O)c1ccc2c(c1)CN(C1CCC(=O)NC1=O)C2=O (stereo not shown) [Example 2]	100 to 500 nM	** (a Y value (shown as**) of 20%<Y≤35%)
CC1([C@@H](NC(=O)c2ccc3c(c2)CN(C2CCC(=O)NC2=O)C3=O)C(F)(F)F)CC1 (stereo partly drawn) [Example 78, 2-(2,6-dioxopiperidin-3-yl)-1-oxo-N-((R)-2,2,2-trifluoro-1-(1-methylcyclopropyl)ethyl)isoindoline-5-carboxamide]	< 100 nM	* (a Y value (shown as *) of 0<Y≤20%)
CN1CCN(c2cccc([C@@H](NC(=O)c3ccc4c(c3)CN(C3CCC(=O)NC3=O)C4=O)C(F)(F)F)c2)CC1 (stereo partly drawn) [Example 209, 2-(2,6-dioxopiperidin-3-yl)-1-oxo-N-((R)-2,2,2-trifluoro-1-(3-(4-methylpiperazin-1-yl)phenyl)ethyl)isoindoline-5-carboxamide]	100 to 500 nM	** (a Y value (shown as**) of 20%<Y≤35%)
O=C1CCC(N2Cc3cc(C(=O)N[C@H](c4cc(C(F)(F)F)ccn4)C(F)(F)F)ccc3C2=O)C(=O)N1 (stereo partly drawn) [Example 119, 2-(2,6-dioxopiperidin-3-yl)-1-oxo-N-((R)-2,2,2-trifluoro-1-(4-(trifluoromethyl)pyridin-2-yl)ethyl)isoindoline-5-carboxamide]	< 100 nM	** (a Y value (shown as**) of 20%<Y≤35%)
N#Cc1cccc([C@@H](NC(=O)c2ccc3c(c2)CN(C2CCC(=O)NC2=O)C3=O)C(F)(F)F)c1 (stereo partly drawn) [Example 64, N-((R)-1-(3-cyanophenyl)-2,2,2-trifluoroethyl)-2-(2,6-dioxopiperidin-3-yl)-1-oxoisoindoline-5-carboxamide]	< 100 nM	* (a Y value (shown as *) of 0<Y≤20%)
O=C1CCC(N2Cc3c(ccc(C(=O)N[C@H](C4CCCCC4)C(F)(F)F)c3F)C2=O)C(=O)N1 (stereo partly drawn) [Example 121, N-((R)-1-cyclohexyl-2,2,2-trifluoroethyl)-2-(2,6-dioxopiperidin-3-yl)-4-fluoro-1-oxoisoindoline-5-carboxamide]	< 100 nM	* (a Y value (shown as *) of 0<Y≤20%)
Cc1ccc([C@@H](NC(=O)c2ccc3c(c2F)CN(C2CCC(=O)NC2=O)C3=O)C(F)(F)F)cc1 (stereo partly drawn) [Example 144, 2-(2,6-dioxopiperidin-3-yl)-4-fluoro-1-oxo-N-((R)-2,2,2-trifluoro-1-p-tolylethyl)isoindoline-5-carboxamide]	100 to 500 nM	* (a Y value (shown as *) of 0<Y≤20%)
O=C1CC[C@H](N2Cc3cc(C(=O)N[C@H](c4ccccc4)C(F)(F)F)ccc3C2=O)C(=O)N1 [Example 61, 2-((S)-2,6-dioxopiperidin-3-yl)-1-oxo-N-((R)-2,2,2-trifluoro-1-phenylethyl)isoindoline-5-carboxamide]	< 100 nM	* (a Y value (shown as *) of 0<Y≤20%)
O=C1CCC(N2Cc3cc(C(=O)N[C@H](C4CCOCC4)C(F)(F)F)ccc3C2=O)C(=O)N1 (stereo partly drawn) [Example 36, 2-(2,6-dioxopiperidin-3-yl)-1-oxo-N-((R)-2,2,2-trifluoro-1-(tetrahydro-2H-pyran-4-yl)ethyl)isoindoline-5-carboxamide]	100 to 500 nM	** (a Y value (shown as**) of 20%<Y≤35%)
O=C1CCC(N2Cc3cc(C(=O)N[C@H](c4cccc(C(F)(F)F)n4)C(F)(F)F)ccc3C2=O)C(=O)N1 (stereo partly drawn) [Example 125, 2-(2,6-dioxopiperidin-3-yl)-1-oxo-N-((R)-2,2,2-trifluoro-1-(6-(trifluoromethyl)pyridin-2-yl)ethyl)isoindoline-5-carboxamide]	< 100 nM	* (a Y value (shown as *) of 0<Y≤20%)
O=C1CCC(N2Cc3cc(C(=O)N[C@H](c4ccc(CN5CCOCC5)cc4)C(F)(F)F)ccc3C2=O)C(=O)N1 (stereo partly drawn) [Example 142, 2-(2,6-dioxopiperidin-3-yl)-1-oxo-N-((R)-2,2,2-trifluoro-1-(4-(morpholinomethyl)phenyl)ethyl)isoindoline-5-carboxamide]	< 100 nM	* (a Y value (shown as *) of 0<Y≤20%)
O=C1CCC(N2Cc3cc(C(=O)N[C@H](c4ccncc4)C(F)(F)F)ccc3C2=O)C(=O)N1 (stereo partly drawn) [Example 39, 2-(2,6-dioxopiperidin-3-yl)-1-oxo-N-((R)-2,2,2-trifluoro-1-(pyridin-4-yl)ethyl)isoindoline-5-carboxamide]	500 to 1000 nM	*** (a Y value (shown as***) of 35%<Y<50%)
O=C1CCC(N2Cc3cc(C(=O)N[C@H](c4cnccn4)C(F)(F)F)ccc3C2=O)C(=O)N1 (stereo partly drawn) [Example 82, 2-(2,6-dioxopiperidin-3-yl)-1-oxo-N-((R)-2,2,2-trifluoro-1-(pyrazin-2-yl)ethyl)isoindoline-5-carboxamide]	100 to 500 nM	** (a Y value (shown as**) of 20%<Y≤35%)
O=C1CCC(N2Cc3c(ccc(C(=O)N[C@@H](C(F)(F)F)C45CC(C4)C5)c3F)C2=O)C(=O)N1 (stereo partly drawn) [Example 138, N-((R)-1-(bicyclo[1.1.1]pentan-1-yl)-2,2,2-trifluoroethyl)-2-(2,6-dioxopiperidin-3-yl)-4-fluoro-1-oxoisoindoline-5-carboxamide]	< 100 nM	* (a Y value (shown as *) of 0<Y≤20%)
O=C1CCC(N2Cc3c(ccc(C(=O)N[C@H](c4ccc(F)cc4)C(F)(F)F)c3Cl)C2=O)C(=O)N1 (stereo partly drawn) [Example 153, 4-chloro-2-(2,6-dioxopiperidin-3-yl)-1-oxo-N-((R)-2,2,2-trifluoro-1-(4-fluorophenyl)ethyl)isoindoline-5-carboxamide]	100 to 500 nM	** (a Y value (shown as**) of 20%<Y≤35%)
O=C1CCC(N2Cc3c(ccc(C(=O)N[C@H](c4ccccc4OC4CC4)C(F)(F)F)c3F)C2=O)C(=O)N1 (stereo partly drawn) [Example 157, N-((R)-1-(2-cyclopropoxyphenyl)-2,2,2-trifluoroethyl)-2-(2,6-dioxopiperidin-3-yl)-4-fluoro-1-oxoisoindoline-5-carboxamide]	< 100 nM	** (a Y value (shown as**) of 20%<Y≤35%)
